Common to all, as to type: in vivo
For experiment [1], the system named is Erysiphe graminis f. sp. tritici. The experiment can be described thus: Test E: preventive spray on wheat seedlings, Erysiphe graminis f. sp. tritici (wheat powdery mildew), visual disease rating. The following applies: 100 = 100% disease control, 0 = no control, unmarked values. The essentials:
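Wheat seedlings were sprayed to run-off with 40 or 10 ppm suspension (160 or 40 g ai/ha) and dusted with spores the next day. They were then kept 8 days at 20 °C. Disease was rated visually as % control relative to untreated controls (0–100).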

Experiment [2] deals with Botrytis cinerea. The experiment can be described thus: Test A: preventive spray on tomato seedlings, Botrytis cinerea (gray mold), visual disease rating. Particulars: 100 = 100% disease control, 0 = no control relative to controls, unmarked values. The essentials:
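Tomato seedlings sprayed to run-off with 40 ppm or 10 ppm suspensions (160 or 40 g ai/ha) in acetone/water with 250 ppm surfactant. Inoculated with B. cinerea spores next day, held saturated at 20 °C for 48 h, then 27 °C for 2 days. Visual rating, 0–100% disease control relative to controls.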

Experiment [3] concerns Puccinia recondite f. sp. tritici. The experiment can be described thus: Test D: preventive spray on wheat seedlings, Puccinia recondite f. sp. tritici (wheat leaf rust), visual disease rating. Particulars: 100 = 100% disease control, 0 = no control, unmarked values. The essentials:
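Wheat seedlings sprayed to run-off with 40 ppm (160 g ai/ha) or 10 ppm (40 g ai/ha) suspension in acetone/water with 250 ppm surfactant, inoculated next day with leaf rust spores. After 24 h saturated at 20 °C then 6 days at 20 °C, visual rating of disease control (0–100) relative to controls.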

The subject of experiment [4] is Stagonospora nodorum (also known as Septoria nodorum). The experiment can be described thus: Test B: preventive spray on wheat seedlings, Stagonospora nodorum (wheat glume blotch), visual disease rating. The following applies: 100 = 100% disease control, 0 = no control, unmarked values. Summed up:
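Compounds in acetone/water (50/50) with 250 ppm Trem 014 surfactant were sprayed to run-off at 40 ppm (160 g ai/ha) or 10 ppm (40 g ai/ha). Seedlings were inoculated with S. nodorum spores the next day, then held 48 h saturated at 20 °C and 6 days in a growth chamber at 20 °C. Visual rating as % disease control vs untreated.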

The subject of experiment [5] is Septoria tritici. The experiment can be described thus: Test C: preventive spray on wheat seedlings, Septoria tritici (wheat leaf blotch), visual disease rating. Particulars: 100 = 100% disease control, 0 = no control, unmarked values. Summed up: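 Wheat seedlings sprayed to run-off at 40 ppm or 10 ppm (160 or 40 g ai/ha) in acetone/water with surfactant, inoculated with Septoria tritici spores next day. Held 48 h saturated at 24 °C, then 21 days at 20 °C. Visual rating scored as % disease control relative to controls.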

SMILES strings stand for the structures.

Turning to `O=C(Nc1ccccc1-c1ccc(-n2ccc(C(F)(F)F)n2)nc1)c1nccnc1Cl` [compound 25], the “Test E disease control rating” value in experiment [1] worked out at 90%. Moreover, the “Test A disease control rating” value in experiment [2] stood at 99%. The “Test D disease control rating” value in experiment [3] is listed as 98%. Further, the “Test B disease control rating” value in experiment [4] came out at 82%. The “Test C disease control rating” value in experiment [5] stood at 100%.
The like results for `O=C(Nc1ccccc1-c1ccc(-n2ccc(C(F)(F)F)n2)nc1)c1ncccc1C(F)(F)F` [compound 26] were, in that order, 100%, 88%, 99%, 90% and 100%.
For `O=C(Nc1ccccc1-c1ccc(-n2cc(-c3cccc(F)c3)cn2)nc1)c1ncccc1C(F)(F)F` [compound 27], the “Test E disease control rating” value in experiment [1] was 96%. For the same compound, the “Test A disease control rating” value in experiment [2] is recorded as 89%. In addition, the “Test D disease control rating” value in experiment [3] is 98%. The “Test B disease control rating” value in experiment [4] turned out to be 99%. Moreover, the “Test C disease control rating” value in experiment [5] was determined as 100%.
In the case of `O=C(Nc1ccccc1-c1ccc(-n2cc(-c3cc(F)cc(F)c3)cn2)nc1)c1ncccc1C(F)(F)F` [compound 28], the “Test E disease control rating” value in experiment [1] amounted to 96%. Further, in experiment [2], the “Test A disease control rating” value came to 99%. In addition, in experiment [3], the “Test D disease control rating” value is reported as 99%. In experiment [4], the “Test B disease control rating” value was 99%. The “Test C disease control rating” value in experiment [5] is reported as 100%.
As for `O=C(Nc1ccccc1-c1ccc(-n2cc(-c3ccccc3F)cn2)nc1)c1ncccc1C(F)(F)F` [compound 29], the “Test E disease control rating” value in experiment [1] is listed as 82%. Besides, the “Test A disease control rating” value in experiment [2] was determined as 77%. In addition, the “Test D disease control rating” value in experiment [3] was 89%. The “Test B disease control rating” value in experiment [4] is on record as 99%. For the same compound, the “Test C disease control rating” value in experiment [5] came to 100%.
Taken in the same sequence, the figures for `O=C(Nc1ccccc1-c1ccc(-n2cc(-c3ccc(F)cc3)cn2)nc1)c1ncccc1C(F)(F)F` [compound 30] were 69%, 33%, 89%, 82% and 91%.
Taken in the same sequence, the figures for `Cn1cc(C(=O)Nc2ccccc2-c2ccc(-n3cc(Br)cn3)nc2)c(C(F)F)n1` [compound 31] were 99%, 100%, 100%, 100% and 100%.
Taken in the same sequence, the figures for `O=C(Nc1ccccc1-c1ccc(-n2cc(Cl)cn2)nc1)c1ncccc1C(F)(F)F` [compound 32] were 99%, 99%, 100%, 100% and 100%.
Regarding `O=C(Nc1ccccc1-c1cnc(-n2ccc(C(F)(F)F)n2)c(Cl)c1)c1ccccc1C(F)(F)F` [compound 33], in experiment [1], the “Test E disease control rating” value is given as 99%. In addition, in experiment [2], the “Test A disease control rating” value is on record as 15%. For the same compound, the “Test D disease control rating” value in experiment [3] turned out to be 100%. Moreover, the “Test B disease control rating” value in experiment [4] stood at 60%. Moreover, in experiment [5], the “Test C disease control rating” value came out at 100%.
In the case of `Cn1cc(C(=O)Nc2ccccc2-c2cnc(-n3ccc(C(F)(F)F)n3)c(Cl)c2)c(C(F)F)n1` [compound 35], the “Test E disease control rating” value in experiment [1] stood at 100%. In addition, the “Test A disease control rating” value in experiment [2] is 97%. In addition, the “Test D disease control rating” value in experiment [3] is 100%. The “Test B disease control rating” value in experiment [4] amounted to 100%. In addition, the “Test C disease control rating” value in experiment [5] is given as 100%.
In the case of `Cc1cc(-c2ccccc2NC(=O)c2ccccc2C(F)(F)F)cnc1-n1ccc(C(F)(F)F)n1` [compound 36], the “Test E disease control rating” value in experiment [1] is recorded as 99%. The “Test A disease control rating” value in experiment [2] was 28%. Also, the “Test D disease control rating” value in experiment [3] is 100%. Also, the “Test B disease control rating” value in experiment [4] is 98%. The “Test C disease control rating” value in experiment [5] is 100%.
Turning to `Cc1cc(-c2ccccc2NC(=O)c2ncccc2C(F)(F)F)cnc1-n1ccc(C(F)(F)F)n1` [compound 37], the “Test E disease control rating” value in experiment [1] is 100%. Moreover, in experiment [2], the “Test A disease control rating” value was 95%. Also, the “Test D disease control rating” value in experiment [3] is given as 100%. In experiment [4], the “Test B disease control rating” value is listed as 100%. Further, in experiment [5], the “Test C disease control rating” value came to 100%.
On to `Cc1cc(-c2ccccc2NC(=O)c2cn(C)nc2C(F)F)cnc1-n1ccc(C(F)(F)F)n1` [compound 38], for which the “Test E disease control rating” value in experiment [1] came out at 100%. Also, the “Test A disease control rating” value in experiment [2] stood at 90%. Further, the “Test D disease control rating” value in experiment [3] stood at 100%. Besides, the “Test B disease control rating” value in experiment [4] is given as 100%. In experiment [5], the “Test C disease control rating” value worked out at 100%.
In the case of `O=C(Nc1ccccc1-c1ccc(-n2ccc(-c3ccccc3)n2)nc1)c1ncccc1C(F)(F)F` [compound 39], the “Test E disease control rating” value in experiment [1] came to 89%. Moreover, the “Test A disease control rating” value in experiment [2] was determined as 45%. Besides, the “Test D disease control rating” value in experiment [3] worked out at 92%. Moreover, in experiment [4], the “Test B disease control rating” value was 0%. Further, the “Test C disease control rating” value in experiment [5] is reported as 92%.
As to `Cn1cc(C(=O)Nc2ccccc2-c2ccc(-n3ccc(-c4ccccc4)n3)nc2)c(C(F)F)n1` [compound 41], in experiment [1], the “Test E disease control rating” value was 84%. The “Test A disease control rating” value in experiment [2] came to 99%. In experiment [3], the “Test D disease control rating” value was 100%. In addition, the “Test B disease control rating” value in experiment [4] turned out to be 40%. Further, in experiment [5], the “Test C disease control rating” value was 100%.
On to `O=C(Nc1ccccc1-c1ccc(-n2ccc(-c3ccccc3)n2)nc1)c1ccccc1C(F)(F)F` [compound 42], for which the “Test E disease control rating” value in experiment [1] is recorded as 21%. Moreover, the “Test A disease control rating” value in experiment [2] is given as 40%. The “Test D disease control rating” value in experiment [3] is reported as 68%. Moreover, in experiment [4], the “Test B disease control rating” value amounted to 0%. Further, in experiment [5], the “Test C disease control rating” value was 87%.
With `Cc1cnn(-c2ccc(-c3ccccc3NC(=O)c3ccccc3C(F)(F)F)cn2)c1` [compound 43], the “Test E disease control rating” value in experiment [1] is 92%. Moreover, the “Test A disease control rating” value in experiment [2] came out at 94%. Moreover, in experiment [3], the “Test D disease control rating” value is reported as 74%. Moreover, the “Test B disease control rating” value in experiment [4] was determined as 99%. The “Test C disease control rating” value in experiment [5] came to 98%.
Consider `Cc1cnn(-c2ccc(-c3ccccc3NC(=O)c3ccccc3C(F)(F)F)cn2)c1` [compound 44], for which, in experiment [1], the “Test E disease control rating” value was found to be 0%. The “Test A disease control rating” value in experiment [2] is reported as 40%. The “Test D disease control rating” value in experiment [3] is on record as 99%. In addition, the “Test B disease control rating” value in experiment [4] is 0%. Moreover, in experiment [5], the “Test C disease control rating” value is on record as 62%.
Turning to `Cc1cnn(-c2ccc(-c3ccccc3NC(=O)c3cn(C)nc3C(F)F)cn2)c1` [compound 45], the “Test E disease control rating” value in experiment [1] came out at 99%. Further, the “Test A disease control rating” value in experiment [2] turned out to be 99%. Besides, the “Test D disease control rating” value in experiment [3] is on record as 100%. Also, the “Test B disease control rating” value in experiment [4] is 98%. In addition, the “Test C disease control rating” value in experiment [5] is 100%.
For `Cc1cnn(-c2ccc(-c3ccccc3NC(=O)c3ncccc3Cl)cn2)c1` [compound 46], in experiment [1], the “Test E disease control rating” value is listed as 0%. In experiment [2], the “Test A disease control rating” value was 21%. The “Test D disease control rating” value in experiment [3] was 97%. In addition, the “Test B disease control rating” value in experiment [4] was found to be 0%. Moreover, the “Test C disease control rating” value in experiment [5] is listed as 8%.
With `O=C(Nc1ccccc1-c1ccc(-n2cc(Br)cn2)nc1)c1ncccc1Cl` [compound 47], in experiment [1], the “Test E disease control rating” value is reported as 0%. In addition, the “Test A disease control rating” value in experiment [2] was 91%. Moreover, in experiment [3], the “Test D disease control rating” value turned out to be 100%. Also, the “Test B disease control rating” value in experiment [4] is recorded as 0%. Further, the “Test C disease control rating” value in experiment [5] stood at 82%.
As for `COc1cc(C(F)(F)F)nn1-c1ccc(-c2ccccc2NC(=O)c2ncccc2C(F)(F)F)cn1` [compound 48], in experiment [1], the “Test E disease control rating” value was determined as 56%. In experiment [2], the “Test A disease control rating” value is 0%. Also, the “Test D disease control rating” value in experiment [3] turned out to be 0%. Besides, the “Test B disease control rating” value in experiment [4] is given as 0%. In experiment [5], the “Test C disease control rating” value is given as 73%.
For `Cc1cc(C)n(-c2ccc(-c3ccccc3NC(=O)c3ncccc3C(F)(F)F)cn2)n1` [compound 52], the “Test E disease control rating” value in experiment [1] is reported as 50%. In addition, the “Test A disease control rating” value in experiment [2] was 36%. The “Test D disease control rating” value in experiment [3] was found to be 96%. Also, the “Test B disease control rating” value in experiment [4] worked out at 0%. In experiment [5], the “Test C disease control rating” value is 99%.
Consider `O=C(Nc1ccccc1-c1ccc(-n2ccc(-c3ccccc3)n2)nc1)c1ncccc1Cl` [compound 53], for which the “Test E disease control rating” value in experiment [1] worked out at 0%. Also, in experiment [2], the “Test A disease control rating” value came out at 0%. For the same compound, the “Test D disease control rating” value in experiment [3] stood at 55%. Moreover, in experiment [4], the “Test B disease control rating” value came out at 0%. For the same compound, the “Test C disease control rating” value in experiment [5] is reported as 0%.

The values above are taken from patent US9730447B2, “Fungicidal amides” (E I DU PONT DE NEMOURS AND COMPANY, priority 2013, dated 2017).
